In patent publication US20250387462A1, “LIPID NANOPARTICLES FOR […] OF NUCLEIC ACIDS AND VACCINE FOR THE PREVENTION OF TU[…] OTHER MYCOBACTERIAL INFECTIONS” (priority 2024, published 2025):

Legend:
[1] = Apparent solubility of phosphatidylserine salts in ethanol (shake flask); format: physicochemical; details: 21 °C, organic solvent or mixture, thermodynamic from solid, 100% ethanol, room temperature, average±SD (N=3)
Experimental: Apparent solubilities of phosphatidylserine salts in ethanol were determined by shake flask technique. Sodium and ammonium salts of phosphatidylserines in the powder form were obtained from Avanti Polar Lipids (Alabama, USA). Aliquots of phosphatidylserine salt powder were placed in 12×75 borosilicate glass tubes in triplicate. Three mL of 200 proof ethanol (catalog number E-7023, MilliporeSigma, USA) were added, the tubes were closed with polyethylene snap caps, agitated using vortex mixer for 10-15 s to obtain uniform suspensions, and placed in a horizontal position on a rocking platform at room temperature (20-22° C.) overnight. The ambient temperature at the end of incubation was 20.4-20.9° C. After 24 hours incubation, the suspensions were visually checked for the presence of a solid phase, allowed to settle under gravity, and the supernatant solutions were passed through a 0.2-μm PTFE syringe membrane filters. The first 0.5 ml of the filtrate was discarded, the next 1 ml was collected, and phosphatidylserine in the filtrates was quantified by phospholipid phosphate assay as follows: 20 μL aliquots of the filtrate were taken in triplicate into glass tubes, ethanol was evaporated in a stream of argon at 70° C., and the residue was digested in a mixture of 60 μL concentrated sulfuric acid and 20 μL 30% hydrogen peroxide for 10 min at 180-190° C. The digested samples were diluted with 1 mL of deionized water, 20 μL of 10% sodium sulfite was added to destroy any residual peroxide, and the samples were incubated on a boiling water bath for 15 min to hydrolyze any condensed phosphate species. The samples were chilled down to room temperature, mixed with 0.2 mL of 2% (w/w) ammonium molybdate solution and 20 μL of 10% (w/w) ascorbic acid solution, incubated on a boiling water bath for 10 min, and chilled down in a water bath at room temperature. The phosphate concentration was determined from the optical density of the formed blue phosphomolybdic acid at 825 nm using five-point standard curve from concurrently run standards prepared from the NIST-traceable commercial phosphate standard solution diluted to cover the range of 0-2 mM phosphate (coefficient of determination R^2>0.9999). Solubility of phosphatidylserine salts was expressed in molarity units of phosphatidylserine (Table 28). The data are average±SD (N=3).

[2] = test system: MutuDC1940 cells; test: mCherry mRNA transfection efficiency of LNPs in murine dendritic cells (flow cytometry); format: cell-based; details: lipid in LNPs, even in the presence of DPPS targeting lipid
Experimental: • 1. MutuDC1940 cells (Applied Biological Materials, T0528) were grown according to supplier's instructions in T75 flasks. They were plated at 180,000 cells/well into 24-well plate one day prior to transfection. • 2. LNPs were added in triplicate to each well at the desired mRNA concentration (e.g. 1 μg/mL) in 1 mL media and after 24 h the cells were washed once with DPBS (VWR 02-0119-1000). • 3. 0.2 mL of DPBS (plus 5 mM EDTA, pH 7.4) was then added to facilitate detachment. • 4. The cells were placed at 37° C. for 3 min, until detached. • 5. 0.5 ml DPBS added to each well and the liquid transferred to a flow cytometry tube (Falcon 5 mL #352054). • 6. The tube was centrifuged at 1100 rpm for 3-5 min and the liquid poured off. • 7. 100 μL of Zombie Violet (Biolegend) (diluted 1:500 in PBS) was added to each tube. • 8. The tubes were gently tapped to resuspend cells and placed in the dark for 15 min at RT. • 9. […]
Cells suspensions were analyzed by an Attune NXT flow cytometer using the VL1 and YL2 for live/dead and mCherry fluorescence signals respectively. […]
The aim of this study was to explore the effect of different KC2 and KC3 ICLs on transfection efficiency in murine dendritic cells. […] Two other variants evaluated have monounsaturated alkyl chains with KC3-OA being 18 carbons in length and KC3C17(8:1) having 17 carbons. […]

[3] = In vivo metabolism of ionizable lipid after intramuscular injection
From the text: We have observed that in vivo metabolism of the KC3-OA lipids after intramuscular injection is slow. This is not unexpected because there are no ester linkages in the lipid tail that would allow for the release of the lipid head group and subsequent clearance from the body. We have identified multiple biodegradable ICLs that differ in the length of the lipid tail, the location and orientation of the ester linkage, and the inclusion of a double bond in the lipid tail.

[4] = test system: Mtb-specific CD4 and CD8 T cells; test: Mtb antigen-specific splenic CD4 and CD8 T cell responses after mRNA-LNP vaccination of CB6F1 or B6C3F1 mice (peptide pool stimulation, intracellular cytokines); format: in vivo; details: 1 ug or 0.2 ug i.m., boost 5 weeks, 8 days later, lipid in DPPS-targeted LNP

SMILES	solubility at 24 h [1]	further results
CCCCCCCCCCCCCCCC(=O)OC[C@H](COP(=O)(O)OC[C@H](N)C(=O)O)OC(=O)CCCCCCCCCCCCCCC.N [DPPS ammonium]	0.865 ± 0.06 mM	
CCCCCCCCCCCCCCCC(=O)OC[C@H](COP(=O)(O)OC[C@H](N)C(=O)[O-])OC(=O)CCCCCCCCCCCCCCC.[Na+] [DPPS sodium]	0.201 ± 0.004 mM	
CCCCCCCCCCCCCCCCCC(=O)OC[C@H](COP(=O)(O)OC[C@H](N)C(=O)O)OC(=O)CCCCCCCCCCCCCCCCC.N [DSPS ammonium]	0.034 ± 0.004 mM	
CCCCCCCCCCCCCCCCCC(=O)OC[C@H](COP(=O)(O)OC[C@H](N)C(=O)[O-])OC(=O)CCCCCCCCCCCCCCCCC.[Na+] [DSPS sodium]	0.111 ± 0.009 mM	
CCCCCCCCCCCCCCCCCC1(CCCCCCCCCCCCCCCCC)OC[C@H](CCCN(C)C)O1 [KC3-17, (S)-3-(2,2-diheptadecyl-1,3-dioxolan-4-yl)-N,N-dimethylpropan-1-amine]		transfection activity in murine dendritic cells (in words) [2]: completely inactive
CCCCCCCC/C=C\CCCCCCCCC1(CCCCCCCC/C=C\CCCCCCCC)OC[C@H](CCCN(C)C)O1 [KC3-OA, 3-((S)-2,2-di((Z)-octadec-9-en-1-yl)-1,3-dioxolan-4-yl)-N,N-dimethylpropan-1-amine]		in vivo metabolism after intramuscular injection [3]: slow
CC(C)CCCC(C)CCCC(C)CCOC(=O)CCCCCCCC1(CCCCCCCC(=O)OCCC(C)CCCC(C)CCCC(C)C)OCC(CCCN(C)C)O1 (stereo not shown) [KC3-X1-PH5]		CD4 and CD8 T cell magnitude compared to KC3-OA [4]: statistically performed better than KC3-OA
